In brackets after ≈: the same amount, converted by molar mass. Counter-ions that a name gives are not always drawn. Like-named read-outs stand apart in the source and are kept apart here.
Columns and labels:
[1] = system: Phenion®FT Skin Models
[2] = system: Phenion®FT Skin Models (keratinocytes and fibroblasts)
[3] = Solubility in vehicle and precipitation on the skin; format: physicochemical; conditions: for Doses with precipitation on the tissue surface: visual inspection, at cell harvest; for Top dose limited by solubility in acetone: acetone vehicle
[4] = system: rats and mice; conditions: cited from earlier work; for Carcinogenicity: rodent studies, topical for sodium xylene sulfonate, ref [65], [72], [82], [85]
[5] = over 24 h; ref [58]; cited from earlier work
[6] = EpiSkin S9 over 4 h for IQ; ref [58]; cited from earlier work
[7] = system: bone marrow, blood, liver, skin; conditions: cited from earlier work

In the case of `CCOS(C)(=O)=O` [EMS, Ethyl methanesulfonate], the “Dose producing signs of strong cytotoxicity that limited the top dose” value ([1]; human) is reported as 200 µg/cm^2, the “Cell type(s) with increased DNA migration” value [2] is reported as “increased in both cell types” and the “Effect on % tail DNA / DNA migration in standard experiment” value [2] is reported as “clear and dose-dependent increase in % tail DNA in both cell types”. For the same compound, the “RS Comet assay overall classification” value [2] was “positive”.
For `Nc1nc[nH]n1` [Amitrole], the “Dose tested without cytotoxicity exceeding the cut-off” value ([1]; human) was 1600 µg/cm^2, the “Effect on % tail DNA / DNA migration in APC experiment” value [2] was “small but statistically significant increase in DNA migration was observed at several doses” and the “Effect on % tail DNA / DNA migration in standard experiment” value [2] was “no observed cytotoxicity outside the cut-off limits or increases in DNA damage”. The “RS Comet assay overall classification” value [2] was “negative”.
In the case of `CN(C)N=O` [DMNA, dimethylnitrosamine], the “RS Comet assay overall classification” value [2] is reported as “negative”.
In the case of `CC(C)(C)c1cc(O)ccc1O` [TBHQ, Tert-butylhydroquinone], the “Dose producing signs of strong cytotoxicity that limited the top dose” value ([1]; human) is reported as 40 µg/cm^2, the “Dose(s) exceeding the cytotoxicity limit in main or APC experiments” value (from here on “Dose(s) exceeding the cytotoxicity limit”) ([1]; human) is reported as 20 µg/cm^2 and the “Effect on % tail DNA / DNA migration in APC experiment” value [2] is reported as “small but statistically significant increase in DNA migration at the two highest doses in fibroblasts only”. For the same compound, the “Effect on % tail DNA / DNA migration in standard experiment” value [2] was “Moderate increases in % tail DNA were observed in this experiment but only at the two highest doses that both exceeded the cytotoxicity limit”, the “Expert call of the performing laboratory in the coded phase” value [2] was “equivocal” and the “RS Comet assay overall classification” value [2] was “negative”. For the same compound, the “Dose(s) with statistically significant increase in DNA migration, fibroblasts” value ([2]; human) was 16 µg/cm^2.
In the case of `COc1cc(/C=C/C(=O)CC(=O)/C=C/c2ccc(O)c(OC)c2)ccc1O` [Curcumin], the “Dose producing signs of strong cytotoxicity that limited the top dose” value ([1]; human) is reported as 50 µg/cm^2, the “Dose(s) exceeding the cytotoxicity limit” value ([1]; human) is reported as 50 µg/cm^2 and the “Doses with precipitation on the tissue surface” value [3] is reported as “precipitation was present at all the tested doses”. For the same compound, the “Effect on % tail DNA / DNA migration in APC experiment” value [2] was “did not increase DNA migration in either experiment”, the “Effect on % tail DNA / DNA migration in standard experiment” value [2] was “marked increase in DNA damage” and the “RS Comet assay overall classification” value [2] was “negative”.
In the case of `CCc1cc(C(N)=S)ccn1` [Ethionamide], the “Dose tested without cytotoxicity exceeding the cut-off” value ([1]; human) is reported as 240 µg/cm^2, the “Dose(s) exceeding the cytotoxicity limit” value ([1]; human) is reported as 320 µg/cm^2 and the “Top dose limited by solubility in acetone” value (shortened to “Top dose limited”) [3] is reported as 320 µg/cm^2. For the same compound, the “Effect on % tail DNA / DNA migration in APC experiment” value [2] was “no significant increases in % tail DNA or cytotoxicity were observed”, the “Effect on % tail DNA / DNA migration in standard experiment” value [2] was “failed to increase % tail DNA” and the “Expert call of the performing laboratory in the coded phase” value [2] was “equivocal”. The “RS Comet assay overall classification” value [2] was “negative” and the “Dose(s) with statistically significant increase in DNA migration, fibroblasts” value ([2]; human) was 320 µg/cm^2.
For `Cc1ccc(N)cc1N` [2,4-DAT, 2,4-diaminotoluene], the “Dose producing signs of strong cytotoxicity that limited the top dose” value ([1]; human) was 1280 µg/cm^2, the “Dose(s) exceeding the cytotoxicity limit” value ([1]; human) was 1200 µg/cm^2 and the “Effect on % tail DNA / DNA migration in standard experiment” value [2] was “did not increase the % tail DNA of either cell type”. The “RS Comet assay overall classification” value [2] was “negative”.
For Sodium xylene sulfonate, the “Dose producing signs of strong cytotoxicity that limited the top dose” value [1] is listed as 512 µg/cm^2, the “Dose(s) exceeding the cytotoxicity limit” value [1] is listed as 640 µg/cm^2 and the Carcinogenicity [4] is listed as “negative for carcinogenicity”. The “Effect on % tail DNA / DNA migration in APC experiment” value [2] was “no significant increases in % tail DNA”, the “Effect on % tail DNA / DNA migration in standard experiment” value [2] was “did not induce an increase in % tail DNA in either cell type” and the “RS Comet assay overall classification” value [2] was “negative”.
For `C1=Cc2cc3cccc4ccc5ccc1c2c5c43` [CPPE, Cyclopenta[c,d]pyrene], the “Dose producing signs of strong cytotoxicity that limited the top dose” value [1] was 75 µg/cm^2, the “Cell type(s) with increased DNA migration” value [2] was “keratinocytes only” and the “Dependence of the result on APC” value [2] was “detected in the presence of APC only”. The “Effect on % tail DNA / DNA migration in APC experiment” value [2] was “significant increase in % tail DNA was observed in the absence of limiting cytotoxicity at four of the top five doses tested in the keratinocytes”, the “Effect on % tail DNA / DNA migration in standard experiment” value [2] was “DNA migration was not increased in either cell type” and the “RS Comet assay overall classification” value [2] was “positive”.
With `C[C@@]1(CO)[C@H](O)CC[C@@]2(C)[C@H]1CC[C@H]1C[C@@H]3C[C@@]12CC[C@]3(O)CO` [APC, aphidicolin] the “Effect on background DNA damage (SC + APC vs SC)” value [2] was “no major impact on the background DNA damage”.
In the case of `Nc1ccc(Cl)cc1` [4-Chloroaniline, 4-chloroaniline], the “Dose producing signs of strong cytotoxicity that limited the top dose” value ([1]; human) is given as 5 µg/cm^2, the “Dose(s) exceeding the cytotoxicity limit” value ([1]; human) is given as ≥ 10 µg/cm^2 and the “Metabolism in ex vivo skin” value [5] is given as “not metabolised”. The Carcinogenicity [4] was “carcinogenic”, the “Metabolism by skin S9” value [6] was “N-acetylated to N-acetyl-4-chloroaniline” and the “Effect on % tail DNA / DNA migration in APC experiment” value [2] was “did not induce an increase in DNA migration”. For the same compound, the “Effect on % tail DNA / DNA migration in standard experiment” value [2] was “did not increase % tail DNA in either cell type” and the “RS Comet assay overall classification” value [2] was “negative”.
With `c1ccc2c(c1)cc1ccc3cccc4ccc2c1c34` [BaP, benzo[a]pyrene] the “Dose tested without cytotoxicity exceeding the cut-off” value ([1]; human) was 160 µg/cm^2, the solubility ([3]; acetone) was 10000 µg/mL (≈ 39.6 mM) and the “Top dose limited” value [3] was 160 µg/cm^2.
In the case of `Cc1c(N)cccc1N` [2,6-DAT, 2,6-diaminotoluene], the “Dose producing signs of strong cytotoxicity that limited the top dose” value ([1]; human) is reported as 800 µg/cm^2, the “Dose(s) exceeding the cytotoxicity limit” value ([1]; human) is reported as ≥ 160 µg/cm^2 and the “Effect on % tail DNA / DNA migration in standard experiment” value [2] is reported as “did not increase the DNA migration”. For the same compound, the “RS Comet assay overall classification” value [2] was “negative”.
In the case of `CC1(C)S[C@@H]2[C@H](NC(=O)[C@H](N)c3ccccc3)C(=O)N2[C@H]1C(=O)O` [Ampicillin sodium salt], the “Effect on % tail DNA / DNA migration in standard experiment” value [2] is reported as “small but statistically significant increase in DNA migration was seen in fibroblasts only at the high dose” and the “RS Comet assay overall classification” value [2] is reported as “negative”.
With `O=P1(N(CCCl)CCCl)NCCCO1` (stereo not shown) [CP, Cyclophosphamide] the “Dose producing signs of strong cytotoxicity that limited the top dose” value ([1]; human) was 1200 µg/cm^2, the “Cell type(s) with increased DNA migration” value [2] was “increased in both cell types” and the “Effect on % tail DNA / DNA migration in standard experiment” value [2] was “dose-dependent increase in % tail DNA in both cell types”. For the same compound, the “RS Comet assay overall classification” value [2] was “positive”.
In the case of “2-Amino-3-methylimidazo[4,5-f]quinolone [IQ]”, the “Dose(s) exceeding the cytotoxicity limit” value [1] is listed as 33.3–300 µg/cm^2, the “Metabolism in ex vivo skin” value [5] is listed as “not metabolised” and the IARC class ([4]; ref IARC) is listed as 2A. For the same compound, the “Metabolism by skin S9” value [6] was “not metabolised”, the “Effect on % tail DNA / DNA migration in APC experiment” value [2] was “did not show a statistically significant increase in DNA damage at any dose” and the “Effect on % tail DNA / DNA migration in standard experiment” value [2] was “moderate increase in % tail DNA was detected in one mid-dose group that was slightly outside the cytotoxicity limits”. For the same compound, the “RS Comet assay overall classification” value [2] was “negative”.
For `NC(=S)N(C1CCCCC1)C1CCCCC1` [N,N-dicyclohexyl thiourea], the “Dose producing signs of strong cytotoxicity that limited the top dose” value [1] is listed as 200 µg/cm^2, the “Dose(s) exceeding the cytotoxicity limit” value [1] is listed as ≥ 160 µg/cm^2 and the Carcinogenicity [4] is listed as “not carcinogenic”. The “Effect on % tail DNA / DNA migration in APC experiment” value [2] was “did not cause any significant increases in % tail DNA”, the “Effect on % tail DNA / DNA migration in standard experiment” value [2] was “did not induce an increase in % tail DNA in either cell type” and the “RS Comet assay overall classification” value [2] was “negative”.
In the case of `Oc1cccc(O)c1` [Resorcinol, 1,3-Dihydroxybenzene], the “Dose producing signs of strong cytotoxicity that limited the top dose” value ([1]; human) is listed as 250 µg/cm^2, the “In vivo micronucleus test in mice” value [7] is listed as “positive” and the “In vivo micronucleus test in rats” value [7] is listed as “no effects”.
With `Cc1cn([C@H]2C[C@H](N=[N+]=[N-])[C@@H](CO)O2)c(=O)[nH]c1=O` [AZT, Azidothymidine] the “Dose producing signs of strong cytotoxicity that limited the top dose” value ([1]; human) was 700 µg/cm^2, the “Cell type(s) with increased DNA migration” value [2] was “increased in both cell types” and the “Effect on % tail DNA / DNA migration in standard experiment” value [2] was “strong dose-dependent increase in % tail DNA in keratinocytes and fibroblasts”. For the same compound, the “RS Comet assay overall classification” value [2] was “positive”.
For `COc1cc([C@@H]2c3cc4c(cc3[C@@H](O[C@@H]3O[C@@H]5CO[C@@H](C)O[C@H]5[C@H](O)[C@H]3O)[C@H]3COC(=O)[C@H]23)OCO4)cc(OC)c1O` [Etoposide], the “Dose producing signs of strong cytotoxicity that limited the top dose” value ([1]; human) was > 120 µg/cm^2.
With `CC(=O)Nc1ccc2c(c1)Cc1ccccc1-2` [2-AAF, 2-acetylaminofluorene] the “Dose(s) exceeding the cytotoxicity limit” value ([1]; human) was 80 µg/cm^2, the “Doses with precipitation on the tissue surface” value [3] was ≥ 128 µg/cm^2 and the “Cell type(s) with increased DNA migration” value [2] was “increased in both cell types”. For the same compound, the “Dependence of the result on APC” value [2] was “detected in the presence of APC only”, the “Effect on % tail DNA / DNA migration in APC experiment” value [2] was “significant increase in DNA migration at all doses tested” and the “Effect on % tail DNA / DNA migration in standard experiment” value [2] was “no increase in DNA migration was observed”. For the same compound, the “RS Comet assay overall classification” value [2] was “positive” and the “Dose(s) with statistically significant increase in % tail DNA, keratinocytes” value ([2]; human) was 80 µg/cm^2.
In the case of `CCCCCl` [N-butyl chloride], the “Dose tested without cytotoxicity exceeding the cut-off” value [1] is reported as 1600 µg/cm^2, the “Dose with statistically significant increase in DNA migration, keratinocytes” value [2] is reported as 400 µg/cm^2 and the “Effect on % tail DNA / DNA migration in APC experiment” value [2] is reported as “did not show any significant increases in DNA migration”. The “RS Comet assay overall classification” value [2] was “negative”.
In the case of `Cc1c2ccccc2c(C)c2c1ccc1ccccc12` [DMBA, 7,12-dimethylbenz[a]anthracene], the “Dependence of the result on APC” value [2] is reported as “detected in the presence of APC only”.
For `OC[C@@H](O)[C@@H](O)[C@H](O)[C@H](O)CO` [D-Mannitol, D-mannitol], the “Top dose limited” value [3] was 320 µg/cm^2, the “Effect on % tail DNA / DNA migration in APC experiment” value [2] was “did not significantly increase DNA migration” and the “Effect on % tail DNA / DNA migration in standard experiment” value [2] was “no increase in DNA migration was observed at any dose”. The “RS Comet assay overall classification” value [2] was “negative”.
For `COS(C)(=O)=O` [MMS, methyl methane sulfonate], the “Positive control response in standard experiments” value [2] was “clear induction of DNA migration”.
In the case of `O=C1CCCCC1` [Cyclohexanone], the “Dependence of the result on APC” value [2] is reported as “positive or equivocal results in the presence of APC only”.
For `O=[N+]([O-])c1ccc(O)cc1` [4-Nitrophenol], the “Dose producing signs of strong cytotoxicity that limited the top dose” value ([1]; human) was 48 µg/cm^2, the “Dose tested without cytotoxicity exceeding the cut-off” value ([1]; human) was 32 µg/cm^2 and the “Effect on % tail DNA / DNA migration in standard experiment” value [2] was “statistically significant increase in % tail DNA was observed in keratinocytes only at the two lowest doses”. The “RS Comet assay overall classification” value [2] was “negative”.

Reference: publication PMC8081376 (Mutagenesis, 2020)
